Experimental data as given in patent publication US20180140679A1, “MODULATION OF AXL RECEPTOR ACTIVITY IN COMBINATION WITH CYTOREDUCTIVE THERAPY” (THE BOARD OF TRUSTEES OF THE LELAND STANFORD JUNIOR …, priority 2016, published 2018).
One block for each molecule: values may come before it.

Experiments:
wild-type cell lines = assay: Reverse phase protein array (RPPA); type: cell-based; conditions: continuously for seven days in low serum (1% FBS)
Description: (§1) To further understand this relationship, we performed a reverse phase protein array (RPPA) on shAxl cell lines and wild-type cell lines treated with MYD1-72 Fc. […] In addition, we performed western blot analysis to examine expression levels of classical DNA damage response components, including total and phosphorylated ATM, ATR, CHK1, CHK2 and RPA32 (FIG. 5B) at four time points post MYD1-72 treatment.
The RPPA was performed by MD Anderson as described.

[1] = system: ATM, ATR, CHK1, CHK2 and RPA32 in ovarian cancer cells; assay: Western blot of DNA damage response components in ovarian cancer cells; type: cell-based; conditions: low serum (0.1% FBS)
From the text: as §1
(§2) Cell lysates subjected to sodium dodecyl sulfate polyacrylamide gel electrophoresis followed by transfer to nitrocellulose membrane. The membranes were then probed with primary antibodies against total Axl (AF154, R&D Systems, INC., Minneapolis, Minn.), phospho-Axl (T702; #5724, CST, Danvers, Mass.), total Akt (#4691 CST, Danvers, Mass.), phosphor-Akt (#4060, CST, Danvers, Mass.), anti-MERTK (#ab52968, Abcam, Cambridge, Mass.), phospho-MERTK (#ab14921 Abcam, Cambridge, Mass.), anti-Tyro3 (#5585, CST, Danvers, Mass.), phospho-Tyro3 (#orb186274, Biorbyt LLC, Berkely, Calif.), Bcl-2 Family Antibody Sampler Kit (#9934, CST, Danvers, Mass.), anti-Chk2 (#sc-5278, Santa Cruz Biotech, INC., Santa Cruz, Calif.), anti-XRCC1 (#2735, CST, Danvers, Mass.), anti-γH2AX (Merck Millipore #05636, Darmstadt, Germany), anti-phospho-ATM (#ab81292, Abcam, Cambridge, Mass.), anti-ATM (#ab78, Abcam, Cambridge, Mass.), anti phospho-ATR (#2853, CST, Danvers, Mass.), anti-ATR (#2790, CST, Danvers, Mass.), anti-Phospho Chk1 (#12302, CST, Danvers, Mass.), anti-Phospho Chk2 (#2197, CST, Danvers, Mass.) and anti-RPA32 (#2208, CST, Danvers, Mass.) at 4° C. overnight. The blots were then washed and probed with HRP conjugated anti-goat (#sc-2020, Santa Cruz Biotech, INC., Santa Cruz, Calif.), or HRP conjugated anti-rabbit (#A16110, Thermo Fisher Scientific, Walthan, Mass.) as appropriate. The blots were developed with Bio-Rad Western C developing reagent (#170-5060 Bio-Rad, Hercules, Calif.) and visualized with Chemidoc digital imager (#1708280, Bio-Rad, Hercules, Calif.).

4T1 luciferase cells = type: in vivo
From the text: In this model, cells orthotopically implanted in the mammary fat pad generate primary masses that metastasize to the lungs.
Comparison of MYD1-72 Fc with clinical Axl. TKIs There are currently no FDA approved drugs targeting Axl, though several small molecule kinase inhibitors are undergoing clinical trials. BerGenBio's BGB324 (previously Rigel's R428) is the most advanced of these compounds, and the first to be developed prospectively as an Axl inhibitor. […] Furthermore, since TKI's and biologics are fundamentally very different, as are their mechanisms of action, a direct comparison would provide valuable insights into the potential of distinct therapeutic intervention strategies. […] Cells were implanted orthotopically in the mammary fat pad, and primary tumors were allowed to establish prior to treatment. […] This dose for the TKIs was chosen as significant activity has been previously reported at equivalent concentrations.
(§3) Treatment was initiated four days post-surgery.

[2] = system: Axl and FLT3 phosphorylation in AML cells; assay: Western blot of Axl and FLT3 phosphorylation in AML cells; type: cell-based, human
From the text: as §2

[3] = system: phosphorylation of Axl, Mer, Tyro3, and downstream Akt signaling in OVCAR8 cells; assay: Western blot of TAM receptor and Akt phosphorylation in OVCAR8 cells; type: cell-based, human
From the text: as §2

skov3.ip = skov3.ip intraperitoneal ovarian cancer model; type: in vivo, mouse xenograft; conditions: MYD1-72 Fc 1 mg/kg daily, doxorubicin 2 mg/kg twice weekly, three weeks
From the text: (§4) At this time, several mice were sacrificed at random to ensure engraftment of diffuse metastatic disease, a hallmark of the human condition. […] After three weeks of treatment, mice were sacrificed and tumor burden was quantified both by counting the number of visible lesions, as well as excising and weighing all diseased tissue.
as §3

[4] = system: LM-P orthotopic pancreatic cancer; assay: LM-P orthotopic pancreatic cancer model; conditions: immunohistochemistry
Description: LMP cells derived from the KRAS/p53 metastatic mouse model were implanted subcutaneously into the flanks of mice and allowed to grow until they reached ˜500 mm^3 in size.
To establish orthotopic tumors, mice harboring subcutaneous tumors were sacrificed and tumors were isolated and cut into small fragments. Laparotomies were then performed and a tumor fragment was secured to the tail of the pancreas.
All procedures involving animals and their care and use were approved by the Institutional Animal Care and Usage Committee of Stanford University. For all in vivo studies, six week old, female nude (nu/nu) mice (Jackson Laboratory, Bar Harbor, Me.) were used. In all studies, animals displaying signs of morbidity were removed from the study immediately. […] Treatment was initiated four days post-inoculation for both studies. […] BGB324 (Selleckchem LLC, Houston, Tex.) and Foretinib (MedChem, Monmouth Junction, N.J.). Small molecules were administered twice daily via oral gavage. […] The orthotropic LM-P pancreatic adenocarcinoma model (a gift from Dr. Edgar Engleman at Stanford University, Stanford, Calif.) was established as previously described. Briefly, 1×10^6 cells were injected subcutaneously into the flanks of nude mice and grown for 2-3 weeks until they reached 500 mm^3. […]

ovarian cancer cells [5] = assay: EdU labeling and γH2AX co-staining; type: cell-based
Description: (§5) 10,000 cells were plated in each well of glass chamber slide and allowed to attach overnight. […] Cells were then washed with PBS and fixed with 4% paraformaldehyde, lysed for 10 minutes and blocked with a 2% BSA and 0.1% PBS-Triton-X solution for 1 hour. After washes in PBS-Triton-X, cells were incubated with mouse anti-[…]H2AX, (#05-636, Merck Millipore, Darmstadt, Germany); rabbit anti-RAD51, (#PC130-100 UL Merck Millipore, Darmstadt, Germany); rabbit anti-53BP1, (# ab36823, Abcam, Cambridge, Mass.) overnight in a humidified chamber at 4 degrees. Cells were washed with PBS and incubated in secondary antibody anti-rabbit FITC (#65-6111 Thermo Fisher Scientific, Walthan, Mass. or anti-mouse FITC, (#62-6511, Thermo Fisher Scientific, Walthan, Mass.) for 1 hour at 37 degrees and counterstained with Prolong Mounting medium with DAPI. Positive foci intensity were calculated using imagine software Metamorph. EdU (5-ethynyl-2′-deoxyuridine) labeling and co-staining were carried out according to the manufacturer's instructions (#C10637, Thermo Fisher Scientific, Walthan, Mass.). γH2AX staining was performed as described above.
(§6) Cells were visualized using a Leica DM6000 B microscope with Leica Application Suite X software (Wetzlar, Germany). EdU was used at a concentration of 10 μM. EdU labeling was carried out for 1 hour in all cases, for conditions including drug treatments EdU was added during the last hour of treatment. Experiments were carried out in triplicate. Quantification of staining: Positive γH2AX staining refers to cells with over eight foci and pan-nuclear staining. For hydroxyurea (Hu) treated groups, γH2AX positive cells refers to cells where a pan-nuclear staining pattern (typically associated with replication stress) was observed.

OVCAR8 = OVCAR8 intraperitoneal ovarian cancer model; type: in vivo, mouse; conditions: MYD1-72 Fc 1 mg/kg daily, doxorubicin 2 mg/kg twice weekly, three weeks
From the text: as §4, §3

ovarian cancer cells [6] = assay: Immunofluorescence of DNA damage foci in ovarian cancer cells; type: cell-based
Description: as §5, §6

human Gas6 = target: T1, human Gas6 (Homo sapiens, UniProt Q14393); assay: Kinetic Exclusion Assay (KinExA), Gas6-Axl binding, human Gas6
T1 sequence (Q14393 31-678): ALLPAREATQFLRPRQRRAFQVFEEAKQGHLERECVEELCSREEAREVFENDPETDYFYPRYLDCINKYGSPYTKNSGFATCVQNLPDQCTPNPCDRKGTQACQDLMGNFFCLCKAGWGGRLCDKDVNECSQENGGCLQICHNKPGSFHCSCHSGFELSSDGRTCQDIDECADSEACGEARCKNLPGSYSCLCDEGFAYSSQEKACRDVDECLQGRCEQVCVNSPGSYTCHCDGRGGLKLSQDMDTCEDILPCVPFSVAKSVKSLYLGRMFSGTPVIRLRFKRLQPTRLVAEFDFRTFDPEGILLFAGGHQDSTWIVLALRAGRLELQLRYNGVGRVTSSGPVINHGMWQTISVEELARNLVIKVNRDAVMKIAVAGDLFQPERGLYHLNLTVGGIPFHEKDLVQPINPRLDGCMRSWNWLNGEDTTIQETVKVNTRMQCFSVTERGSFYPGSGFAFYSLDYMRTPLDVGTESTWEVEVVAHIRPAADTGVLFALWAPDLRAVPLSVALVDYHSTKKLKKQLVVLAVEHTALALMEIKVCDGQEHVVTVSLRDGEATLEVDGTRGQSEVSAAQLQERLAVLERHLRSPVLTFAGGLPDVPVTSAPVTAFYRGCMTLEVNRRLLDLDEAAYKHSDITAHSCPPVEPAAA
Description: (§7) Equilibrium binding and association rate constants for all Gas6-Axl interactions were measured on a KinExA3200 instrument (Sapidyne Instruments Inc. Boise, Id.) as previously described. For equilibrium binding studies, three independent titrations were completed for each Axl Ig1 or Axl Fc fusion unless otherwise noted. […] After the appropriate incubation time, reactions were flowed over MYD1 Fc coated beads and captured free Gas6 was probed using an anti-6×HIS Dylight 649 antibody (#200-343-382, Rockland Immunochemicals Inc., Pottstown, Pa.). Each sample was measured twice and data from the three independent equilibrium binding experiments were globally analyzed using n-curve analysis in the KinExA Pro 3.6.2 software (Sapidyne Instruments Inc. Boise, Id.) to obtain the Kd value. To analyze the association rate of the interactions, the direct inject method was used. For these experiments, 1 μM Axl was serially diluted 1:2.5, and equal volumes of each Axl sample and 500 nM Gas6 were briefly mixed and flowed over the capture beads. Free Gas6 was detected as described and the data was fit using the KinExA Pro 3.6.2 software to obtain the association rate (kon) of the interaction. The dissociation rate (koff) was calculated as the product of the Kd and the kon.

mouse Gas6 = target: T2, mouse Gas6 (Mus musculus, UniProt Q61592); assay: Kinetic Exclusion Assay (KinExA), Gas6-Axl binding, mouse Gas6
T2 sequence (Q61592 28-674): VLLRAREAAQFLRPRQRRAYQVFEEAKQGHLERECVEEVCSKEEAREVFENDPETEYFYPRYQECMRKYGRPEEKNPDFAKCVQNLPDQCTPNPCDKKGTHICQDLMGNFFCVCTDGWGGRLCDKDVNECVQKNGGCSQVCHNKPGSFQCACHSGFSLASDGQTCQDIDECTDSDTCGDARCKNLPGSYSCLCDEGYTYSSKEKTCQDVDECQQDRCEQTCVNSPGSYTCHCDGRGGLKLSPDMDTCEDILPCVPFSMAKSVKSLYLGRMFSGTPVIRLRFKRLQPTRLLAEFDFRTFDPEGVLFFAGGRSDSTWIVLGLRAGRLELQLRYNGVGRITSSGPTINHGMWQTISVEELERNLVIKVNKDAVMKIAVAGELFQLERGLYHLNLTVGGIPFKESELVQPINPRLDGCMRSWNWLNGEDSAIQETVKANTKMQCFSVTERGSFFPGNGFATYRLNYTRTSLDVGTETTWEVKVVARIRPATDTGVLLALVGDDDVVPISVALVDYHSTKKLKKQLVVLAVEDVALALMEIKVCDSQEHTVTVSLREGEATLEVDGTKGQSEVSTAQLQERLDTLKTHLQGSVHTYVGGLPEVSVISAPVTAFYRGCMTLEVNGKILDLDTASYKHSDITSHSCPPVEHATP
Description: as §7

Molecule: MYD1-72 Fc: Fc fusion of the second generation high-affinity Axl decoy receptor MYD1-72 (Gly32Ser, Ala72Val, Asp87Gly, Val92Ala, Gly127Arg)
XRCC1/Chk2 and BAX/BID expression (wild-type cell lines): highly upregulated | phospho-RPA32 level [1]: Elevated phospho-RPA32 level | phospho-ATM and phospho-ATR ([1]; four time points): significant induction of phospho-ATM and phospho-ATR at early time points | phosphorylation of CHK1 and CHK2 ([1]; four time points): increased phosphorylation of both CHK1 and CHK2 | lung metastatic disease (4T1 luciferase cells; 0.5 mg/kg iv twice a week, three weeks): significantly less metastatic disease than those treated with MYD1 Fc | reduction in lung metastases compared to vehicle treated mice (4T1 luciferase cells; MYD1-72 Fc 1 mg/kg daily, TKIs 12.5 mg/kg twice daily, ex vivo bioluminescent imaging): 71% | size of primary tumors (4T1 luciferase cells; MYD1-72 Fc 1 mg/kg daily, TKIs 12.5 mg/kg twice daily, three weeks, vs control): significantly reduced the size of primary tumors | γH2AX positive cells in primary tumor (4T1 luciferase cells; immunohistochemistry): significantly more γH2AX positive cells compared to all other treatment groups | Axl and FLT3 phosphorylation [2]: inhibited Axl and FLT3 phosphorylation | pAxl and pAkt levels [3]: significantly reduced pAxl and pAkt levels | pMer and pTyro3 levels [3]: pMer and pTyro3 remained relatively unchanged | decrease in tumor burden (by weight) vs controls (skov3.ip): 51% | γH2AX staining (DNA damage) in primary tumor [4]: small effect on DNA damage | γH2AX positive cells in combination with hydroxyurea (ovarian cancer cells [5]; hydroxyurea in the presence and absence of MYD1-72 Fc): no additive effect was observed | non-S phase cells (EdU negative) positive for γH2AX (ovarian cancer cells [5]; treated group): 7% | γH2AX positive cells that were also in S phase/EdU positive (ovarian cancer cells [5]; treated group): 85% | reduction of tumor burden (OVCAR8): 95% | γH2AX foci (ovarian cancer cells [6]; complete media, 0.1 μg or 10 μg): showed no changes across treatments | 53BP1 and RAD51 foci (ovarian cancer cells [6]; serum-limited conditions): increased the numbers of both 53BP1 and RAD51 foci | number of γH2AX foci (ovarian cancer cells [6]; serum-limited conditions, vs untreated controls): significant increase in the number of γH2AX foci

Kd (human Gas6; Axl Ig1 variants, read-out: Kd hGas6): 2.7 pM | koff (human Gas6; calculated as the product of the Kd and the kon): 4.0 10^−5 s^−1 | kon (human Gas6; direct inject method): 1.6 10^7 M^−1 s^−1 | binding to mouse Gas6 (mouse Gas6): no increase in binding to mouse Gas6
B1: MYD1 Ig1: first generation high affinity Axl Ig1 variant containing four mutations that conferred improved binding to Gas6 (protein)
chain: APRGTQAEESPFVSNPGNITGARGLTGTLRCQLQVQGEPPEVHWLRDGQILELADSTQTQVPLGEDEQGDWIVASQLRITSLQLSDTGQYQCLVFLGHQTFVSQPGYVRLEGLP
modifications: left off: small tags and cut ends
